Read-outs that look alike come from different tables or passages of the source.

Assay [1] deals with T1, CK1a (Homo sapiens, UniProt P48729+Q96SW2).
T1 construct: endogenous in cells; host or cells: hPBMC
Briefly: Western blot degradation of CK1a in hPBMC. Format: cell-based. As to the method: (§1) Conventional Western blot assay was performed to evaluate the effects of the compounds of the present disclosure on the expression of target proteins in cells.
(§2) • (1) Cell Seeding and Protein Harvesting: The selected cells were processed according to the cell seeding procedure and protein harvesting procedure in Table III-2.
(§3) • (2) To the collected supernatant, 5×SDS sample loading buffer was added, followed by denaturation at 95° C. for 5 minutes. The denatured samples were then separated by SDS-PAGE electrophoresis on a polyacrylamide gel. Proteins were transferred to a nitrocellulose membrane ([…] NC membrane), blocked with blocking buffer at room temperature for 1 hour, and subjected to antibody incubation and development procedures according to the antibody manufacturer's instructions (Cell Signaling Technology).
(§4) Half-Maximal Degradation Concentration value (the drug concentration required for degrading proteins by 50%, abbreviated as DC50) reads method: comparing the grayscale values of Western blot bands from drug-treated samples with those from blank DMSO-treated controls, and identifying the drug concentration range at which the grayscale value is half that of the DMSO-treated control bands.
(§5) DC50 values can be calculated using ImageJ software to measure grayscale values of Western blot bands from drug-treated samples. The concentration-response curve is fitted to estimate the drug concentration corresponding to half the grayscale value.
(§6) Target protein remaining (0%) refers to the percentage of target protein remaining in hPBMC cells after treatment with protein degrader compounds.
(§7) Calculation method for target protein remaining (0%): Use ImageJ software to measure grayscale values of Western blot bands from drug (protein degrader)-treated samples. The grayscale value of drug-treated bands is divided by that of internal control protein bands, and the resulting quotient is normalized to obtain the relative percentage of remaining target protein after protein degrader treatment.
In general terms: In western blotting, separated proteins are transferred to a membrane and probed.

Assay [2] deals with T2, IKZF2 (Homo sapiens, UniProt Q96SW2+Q9UKS7).
T2 construct: endogenous in cells; host or cells: hPBMC
T2 sequence (Q9UKS7 whole entry): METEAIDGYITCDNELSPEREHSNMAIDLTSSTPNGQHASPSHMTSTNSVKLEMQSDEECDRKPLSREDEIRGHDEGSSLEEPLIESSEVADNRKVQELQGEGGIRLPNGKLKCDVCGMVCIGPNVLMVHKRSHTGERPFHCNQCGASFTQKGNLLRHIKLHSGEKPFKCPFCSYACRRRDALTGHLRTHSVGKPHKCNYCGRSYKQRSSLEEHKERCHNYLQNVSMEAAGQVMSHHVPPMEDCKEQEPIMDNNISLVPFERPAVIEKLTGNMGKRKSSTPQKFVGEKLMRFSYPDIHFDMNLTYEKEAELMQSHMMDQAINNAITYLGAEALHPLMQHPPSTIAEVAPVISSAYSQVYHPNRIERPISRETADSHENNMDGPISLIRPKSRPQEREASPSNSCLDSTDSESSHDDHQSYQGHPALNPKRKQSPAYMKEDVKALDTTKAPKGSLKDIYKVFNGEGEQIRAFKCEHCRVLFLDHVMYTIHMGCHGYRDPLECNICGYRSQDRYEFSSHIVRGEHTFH
T2 sequence (Q96SW2 whole entry): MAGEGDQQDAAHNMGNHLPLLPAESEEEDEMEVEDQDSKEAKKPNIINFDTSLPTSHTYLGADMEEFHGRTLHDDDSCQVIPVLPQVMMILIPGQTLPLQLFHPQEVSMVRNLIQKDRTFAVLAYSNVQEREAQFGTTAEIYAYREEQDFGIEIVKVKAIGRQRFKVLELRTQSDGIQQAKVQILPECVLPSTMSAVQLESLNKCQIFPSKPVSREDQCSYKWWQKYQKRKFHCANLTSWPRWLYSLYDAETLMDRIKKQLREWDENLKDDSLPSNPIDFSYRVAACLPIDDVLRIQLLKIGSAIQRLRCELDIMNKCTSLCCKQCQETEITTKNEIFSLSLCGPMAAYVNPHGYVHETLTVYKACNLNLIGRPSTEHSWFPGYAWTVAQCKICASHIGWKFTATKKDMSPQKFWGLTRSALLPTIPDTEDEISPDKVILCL
T2 sequence (Q16531 whole entry partner): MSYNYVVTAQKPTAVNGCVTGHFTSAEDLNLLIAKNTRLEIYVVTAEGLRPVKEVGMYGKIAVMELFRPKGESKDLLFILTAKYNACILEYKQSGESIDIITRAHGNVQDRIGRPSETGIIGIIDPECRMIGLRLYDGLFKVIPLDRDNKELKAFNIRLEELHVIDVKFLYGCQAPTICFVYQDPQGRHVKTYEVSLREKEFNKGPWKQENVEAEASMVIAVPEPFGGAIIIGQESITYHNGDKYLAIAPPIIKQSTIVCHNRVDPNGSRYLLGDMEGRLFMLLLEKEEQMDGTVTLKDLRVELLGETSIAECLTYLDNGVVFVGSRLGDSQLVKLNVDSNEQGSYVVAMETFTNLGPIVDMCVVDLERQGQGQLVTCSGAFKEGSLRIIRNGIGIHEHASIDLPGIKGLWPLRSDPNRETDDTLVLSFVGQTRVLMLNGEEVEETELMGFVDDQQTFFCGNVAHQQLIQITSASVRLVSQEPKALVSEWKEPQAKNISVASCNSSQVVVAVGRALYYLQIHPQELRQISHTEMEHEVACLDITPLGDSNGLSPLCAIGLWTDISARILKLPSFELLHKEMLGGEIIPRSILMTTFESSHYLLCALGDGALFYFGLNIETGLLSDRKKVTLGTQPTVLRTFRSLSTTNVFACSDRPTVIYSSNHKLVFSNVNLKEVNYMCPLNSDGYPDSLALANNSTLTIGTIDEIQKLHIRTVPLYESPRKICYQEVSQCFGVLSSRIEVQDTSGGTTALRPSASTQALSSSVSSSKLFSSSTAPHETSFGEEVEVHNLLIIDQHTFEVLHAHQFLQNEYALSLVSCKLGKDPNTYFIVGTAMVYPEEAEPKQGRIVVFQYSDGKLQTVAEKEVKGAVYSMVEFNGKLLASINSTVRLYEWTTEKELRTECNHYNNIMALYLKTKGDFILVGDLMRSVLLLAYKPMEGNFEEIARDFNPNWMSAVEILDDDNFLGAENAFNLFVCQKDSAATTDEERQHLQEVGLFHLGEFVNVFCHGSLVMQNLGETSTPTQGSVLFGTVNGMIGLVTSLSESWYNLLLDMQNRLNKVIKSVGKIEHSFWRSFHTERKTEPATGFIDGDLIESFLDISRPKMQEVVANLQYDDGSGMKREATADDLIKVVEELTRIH
In words: Western blot degradation of IKZF2 in hPBMC. The assay is classed as cell-based. The procedure: as §1, §2, §3, §4, §5, §6, §7

In assay [3] the target is T3, WEE1 (Homo sapiens, UniProt P30291+Q96SW2).
T3 construct: endogenous in cells; host or cells: hPBMC
T3 sequence (P30291 whole entry): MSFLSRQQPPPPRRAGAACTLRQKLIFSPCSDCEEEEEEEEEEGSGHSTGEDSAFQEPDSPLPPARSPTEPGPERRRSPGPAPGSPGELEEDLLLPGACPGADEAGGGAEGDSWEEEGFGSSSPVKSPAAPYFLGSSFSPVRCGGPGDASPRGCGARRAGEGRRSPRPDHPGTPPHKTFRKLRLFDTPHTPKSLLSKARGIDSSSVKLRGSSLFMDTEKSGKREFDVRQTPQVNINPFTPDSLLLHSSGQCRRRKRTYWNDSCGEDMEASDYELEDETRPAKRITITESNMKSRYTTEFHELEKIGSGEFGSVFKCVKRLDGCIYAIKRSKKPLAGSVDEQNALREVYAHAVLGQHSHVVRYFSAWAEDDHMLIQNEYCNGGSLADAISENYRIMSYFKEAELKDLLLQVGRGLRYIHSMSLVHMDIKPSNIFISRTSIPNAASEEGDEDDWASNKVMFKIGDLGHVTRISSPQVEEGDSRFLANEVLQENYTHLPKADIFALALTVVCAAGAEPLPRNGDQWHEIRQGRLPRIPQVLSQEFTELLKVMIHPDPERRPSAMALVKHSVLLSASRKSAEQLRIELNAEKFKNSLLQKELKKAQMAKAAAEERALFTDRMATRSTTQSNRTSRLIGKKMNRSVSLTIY
T3 sequence (Q96SW2 whole entry): as the sequence (Q96SW2 whole entry) above
T3 sequence (Q16531 whole entry partner): as the sequence (Q16531 whole entry partner) above
Briefly: Western blot degradation of WEE1 in hPBMC. The assay is classed as cell-based. As to the method: as §1, §2, §3, §4, §5, §6, §7

Assay [4] concerns the target T4, GSPT1 (Homo sapiens, UniProt P15170+Q96SW2).
T4 construct: endogenous in cells; host or cells: hPBMC
In words: Western blot degradation of GSPT1 in hPBMC. Format: cell-based. The procedure: as §1, §2, §3, §4, §5, §6, §7

For assay [5], the target named is T5, IKZF3 (Homo sapiens, UniProt Q96SW2+Q9UKT9).
T5 construct: endogenous in cells; host or cells: hPBMC
T5 sequence (Q9UKT9 whole entry): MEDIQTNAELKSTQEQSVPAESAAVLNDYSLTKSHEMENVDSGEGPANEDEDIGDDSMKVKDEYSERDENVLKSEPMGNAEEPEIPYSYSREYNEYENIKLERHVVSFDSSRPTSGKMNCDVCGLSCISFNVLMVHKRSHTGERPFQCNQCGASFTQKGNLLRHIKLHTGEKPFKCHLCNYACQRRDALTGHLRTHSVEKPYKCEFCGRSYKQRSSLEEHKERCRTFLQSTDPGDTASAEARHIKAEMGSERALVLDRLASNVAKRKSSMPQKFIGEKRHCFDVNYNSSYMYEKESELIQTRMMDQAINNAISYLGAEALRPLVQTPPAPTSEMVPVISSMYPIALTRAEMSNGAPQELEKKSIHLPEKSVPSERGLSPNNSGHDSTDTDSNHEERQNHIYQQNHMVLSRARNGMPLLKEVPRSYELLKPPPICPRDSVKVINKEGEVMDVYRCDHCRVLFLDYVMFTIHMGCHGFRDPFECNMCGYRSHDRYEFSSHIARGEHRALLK
T5 sequence (Q96SW2 whole entry): as the sequence (Q96SW2 whole entry) above
T5 sequence (Q16531 whole entry partner): as the sequence (Q16531 whole entry partner) above
Briefly: Western blot degradation of IKZF3 in hPBMC. Format: cell-based. As to the method: as §1, §2, §3, §4, §5, §6, §7

Assay [6] concerns the target T6, IKZF1 (Homo sapiens, UniProt Q13422+Q96SW2).
T6 construct: endogenous in cells; host or cells: hPBMC
Briefly: Western blot degradation of IKZF1 in hPBMC. Format: cell-based. As to the method: as §1, §2, §3, §4, §5, §6, §7

Assay [7] addresses T7, human Cereblon WT GST-tagged protein (Homo sapiens, UniProt Q96SW2).
T7 construct: purchased CISBIO 64BDCRBNPEH
In words: CRBN binding, HTRF CEREBLON BINDING kit. An outline of the steps:
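HTRF competition in which test compounds displace a Thalidomide-Re tracer from GST-tagged human Cereblon WT, detected with a GST Eu antibody. Incubation lasted 3 hours at room temperature, with emission read at 620 and 665 nm. Inhibition rate was derived from 665/620 ratios relative to blank and solvent control wells.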

Where [8] appears, read: CRBN binding, HTRF CEREBLON BINDING kit.

T6 sequence (Q13422 whole entry): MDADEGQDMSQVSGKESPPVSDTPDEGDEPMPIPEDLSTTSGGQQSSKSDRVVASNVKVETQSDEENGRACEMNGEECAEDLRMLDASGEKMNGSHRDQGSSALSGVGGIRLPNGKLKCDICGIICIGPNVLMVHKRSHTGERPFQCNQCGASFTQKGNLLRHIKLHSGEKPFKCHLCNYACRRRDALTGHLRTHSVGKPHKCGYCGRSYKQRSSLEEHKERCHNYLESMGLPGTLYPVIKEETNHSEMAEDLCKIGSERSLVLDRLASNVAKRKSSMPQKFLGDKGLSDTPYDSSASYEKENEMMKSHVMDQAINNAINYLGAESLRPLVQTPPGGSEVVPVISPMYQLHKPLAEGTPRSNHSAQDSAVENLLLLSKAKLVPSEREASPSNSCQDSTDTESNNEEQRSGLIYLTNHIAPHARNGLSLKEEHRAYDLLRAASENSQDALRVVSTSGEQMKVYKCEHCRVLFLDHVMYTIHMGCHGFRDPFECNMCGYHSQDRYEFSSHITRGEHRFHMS
T6 sequence (Q96SW2 whole entry): as the sequence (Q96SW2 whole entry) above
T6 sequence (Q16531 whole entry partner): as the sequence (Q16531 whole entry partner) above
T1 sequence (P48729 whole entry): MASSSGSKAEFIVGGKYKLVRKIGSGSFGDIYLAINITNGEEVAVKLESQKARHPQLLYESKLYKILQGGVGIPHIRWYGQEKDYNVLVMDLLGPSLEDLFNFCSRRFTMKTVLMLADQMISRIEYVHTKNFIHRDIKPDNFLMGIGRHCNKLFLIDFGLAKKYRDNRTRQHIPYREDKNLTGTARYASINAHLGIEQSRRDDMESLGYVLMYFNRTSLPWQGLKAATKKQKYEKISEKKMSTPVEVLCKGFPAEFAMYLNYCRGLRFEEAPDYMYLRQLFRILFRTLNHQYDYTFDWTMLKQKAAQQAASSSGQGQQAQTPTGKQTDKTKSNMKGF
T1 sequence (Q96SW2 whole entry): as the sequence (Q96SW2 whole entry) above
T1 sequence (Q16531 whole entry partner): as the sequence (Q16531 whole entry partner) above
T7 sequence (Q96SW2 whole entry): as the sequence (Q96SW2 whole entry) above

As for `O=C1CCC(c2cncc(CCl)c2)C(=O)N1` (centres unmarked) [GT-06991, 3-(5-(chloromethyl)pyridin-3-yl)piperidine-2,6-dione], the “Degradation of substrate protein CK1a (substrate protein remaining %)” value in assay [1] is “B (B is defined as substrate protein remaining % > 80%)”. Further, the “Degradation of substrate protein IKZF2 (substrate protein remaining %)” value in assay [2] is reported as “A (A is defined as 0% ≤ substrate protein remaining % ≤ 80%)”. The “Degradation of substrate protein WEE1 (substrate protein remaining %)” value in assay [3] is “B (B is defined as substrate protein remaining % > 80%)”. In assay [4], the “Degradation of substrate protein GSPT1 (substrate protein remaining %)” value is “B (B is defined as substrate protein remaining % > 80%)”. Further, the “Degradation of substrate protein IKZF3 (substrate protein remaining %)” value in assay [5] was “B (B is defined as substrate protein remaining % > 80%)”. Moreover, the “Degradation of substrate protein IKZF1 (substrate protein remaining %)” value in assay [6] is given as “B (B is defined as substrate protein remaining % > 80%)”.

For the compound `O=C1CCN(c2ccc(CCl)cn2)C(=O)N1` [GT-07009, 1-(5-(chloromethyl)pyridin-2-yl)dihydropyrimidine-2,4(1H,3H)-dione], the “Degradation of substrate protein CK1a (substrate protein remaining %)” value in assay [1] is “A (A is defined as 0% ≤ substrate protein remaining % ≤ 80%)”. Besides, in assay [2], the “Degradation of substrate protein IKZF2 (substrate protein remaining %)” value is on record as “B (B is defined as substrate protein remaining % > 80%)”. The “Degradation of substrate protein WEE1 (substrate protein remaining %)” value in assay [3] was “B (B is defined as substrate protein remaining % > 80%)”. The “Degradation of substrate protein GSPT1 (substrate protein remaining %)” value in assay [4] is “B (B is defined as substrate protein remaining % > 80%)”. Also, in assay [5], the “Degradation of substrate protein IKZF3 (substrate protein remaining %)” value is recorded as “B (B is defined as substrate protein remaining % > 80%)”. In assay [6], the “Degradation of substrate protein IKZF1 (substrate protein remaining %)” value is listed as “B (B is defined as substrate protein remaining % > 80%)”.

In the case of `O=C1CCC(c2ccc(CO)nc2)C(=O)N1` (centres unmarked) [GT-07010, 3-(6-(hydroxymethyl)pyridin-3-yl)piperidine-2,6-dione], the “Degradation of substrate protein CK1a (substrate protein remaining %)” value in assay [1] is recorded as “A (A is defined as 0% ≤ substrate protein remaining % ≤ 80%)”. In addition, the “Degradation of substrate protein IKZF2 (substrate protein remaining %)” value in assay [2] was “B (B is defined as substrate protein remaining % > 80%)”. Further, the “Degradation of substrate protein WEE1 (substrate protein remaining %)” value in assay [3] is listed as “B (B is defined as substrate protein remaining % > 80%)”. In addition, the “Degradation of substrate protein GSPT1 (substrate protein remaining %)” value in assay [4] is “A (A is defined as 0% ≤ substrate protein remaining % ≤ 80%)”. Moreover, the “Degradation of substrate protein IKZF3 (substrate protein remaining %)” value in assay [5] is “A (A is defined as 0% ≤ substrate protein remaining % ≤ 80%)”. Further, in assay [6], the “Degradation of substrate protein IKZF1 (substrate protein remaining %)” value is “B (B is defined as substrate protein remaining % > 80%)”.

As for `CCc1cc2c(cc1N1CCC(N3CCN(Cc4cc(C5CCC(=O)NC5=O)cnc4F)CC3)CC1)C(C)(C)c1[nH]c3cc(C#N)ccc3c1C2=O` (centres unmarked) [GT-07703, 8-(4-(4-((5-(2,6-dioxopiperidin-3-yl)-2-fluoropyridin-3-yl)methyl)piperazin-1-yl)piperidin-1-yl)-9-ethyl-6,6-dimethyl-11-oxo-6,11-dihydro-5H-benzo[b]carbazole-3-carbonitrile], in assay [7] (setting [8]), the half-inhibitory concentration (IC50) (usually the point on the concentration scale where inhibition reaches its midpoint) was less than 500 nM.

In assay [7] (setting [8]), `CCc1cc2c(cc1N1CCC(N3CCN(Cc4ccnc(C5CCC(=O)NC5=O)c4)CC3)CC1)C(C)(C)c1[nH]c3cc(C#N)ccc3c1C2=O` (centres unmarked) [GT-07704, 8-(4-(4-((2-(2,6-dioxopiperidin-3-yl)pyridin-4-yl)methyl)piperazin-1-yl)piperidin-1-yl)-9-ethyl-6,6-dimethyl-11-oxo-6,11-dihydro-5H-benzo[b]carbazole-3-carbonitrile] registered an IC50 of 1000 to 1900 nM.

In assay [7] (setting [8]), `CCc1cc2c(cc1N1CCC(N3CCN(Cc4ccc(C5CCC(=O)NC5=O)cn4)CC3)CC1)C(C)(C)c1[nH]c3cc(C#N)ccc3c1C2=O` (centres unmarked) [GT-07705, 8-(4-(4-((5-(2,6-dioxopiperidin-3-yl)pyridin-2-yl)methyl)piperazin-1-yl)piperidin-1-yl)-9-ethyl-6,6-dimethyl-11-oxo-6,11-dihydro-5H-benzo[b]carbazole-3-carbonitrile] showed an IC50 of less than 500 nM.

Regarding `CCc1cc2c(cc1N1CCC(N3CCN(Cc4cncc(C5CCC(=O)NC5=O)c4)CC3)CC1)C(C)(C)c1[nH]c3cc(C#N)ccc3c1C2=O` (centres unmarked) [GT-07706, 8-(4-(4-((5-(2,6-dioxopiperidin-3-yl)pyridin-3-yl)methyl)piperazin-1-yl)piperidin-1-yl)-9-ethyl-6,6-dimethyl-11-oxo-6,11-dihydro-5H-benzo[b]carbazole-3-carbonitrile], the IC50 in assay [7] (setting [8]) was less than 500 nM.

The compound `COc1cc(N2CCN(Cc3cncc(N4CCC(=O)NC4=O)c3)CC2)ccc1Nc1ncc(Cl)c(Nc2ccccc2P(C)(C)=O)n1` [GT-07709, 1-(5-((4-(4-((5-chloro-4-((2-(dimethylphosphoryl)phenyl)amino)pyrimidin-2-yl)amino)-3-methoxyphenyl)piperazin-1-yl)methyl)pyridin-3-yl)dihydropyrimidine-2,4(1H,3H)-dione] returned an IC50 in assay [7] (setting [8]) of 500 to 1000 nM.

On to `COc1cc(N2CCN(Cc3cc(C4CCC(=O)NC4=O)cnc3F)CC2)ccc1Nc1ncc(Cl)c(Nc2ccccc2P(C)(C)=O)n1` (centres unmarked) [GT-07710, 3-(5-((4-(4-((5-chloro-4-((2-(dimethylphosphoryl)phenyl)amino)pyrimidin-2-yl)amino)-3-methoxyphenyl)piperazin-1-yl)methyl)-6-fluoropyridin-3-yl)piperidine-2,6-dione], for which the half-inhibitory concentration (IC50) in assay [7] (setting [8]) is less than 500 nM.

For `COc1cc(N2CCN(Cc3ccc(C4CCC(=O)NC4=O)cn3)CC2)ccc1Nc1ncc(Cl)c(Nc2ccccc2P(C)(C)=O)n1` (centres unmarked) [GT-07713, 3-(6-((4-(4-((5-chloro-4-((2-(dimethylphosphoryl)phenyl)amino)pyrimidin-2-yl)amino)-3-methoxyphenyl)piperazin-1-yl)methyl)pyridin-3-yl)piperidine-2,6-dione], the IC50 in assay [7] (setting [8]) is 500 to 1000 nM.

As to `COc1cc(N2CCN(Cc3cncc(C4CCC(=O)NC4=O)c3)CC2)ccc1Nc1ncc(Cl)c(Nc2ccccc2P(C)(C)=O)n1` (centres unmarked) [GT-07714, 3-(5-((4-(4-((5-chloro-4-((2-(dimethylphosphoryl)phenyl)amino)pyrimidin-2-yl)amino)-3-methoxyphenyl)piperazin-1-yl)methyl)pyridin-3-yl)piperidine-2,6-dione], the IC50 in assay [7] (setting [8]) is less than 500 nM.

As for `COc1cc2nn(C3CCN(Cc4cc(N5CCC(=O)NC5=O)cnc4F)CC3)cc2cc1NC(=O)c1cccc(C(F)(F)F)c1` [GT-07781, N-(2-(1-((5-(2,4-dioxotetrahydropyrimidin-1(2H)-yl)-2-fluoropyridin-3-yl)methyl)piperidin-4-yl)-6-methoxy-2H-indazol-5-yl)-3-(trifluoromethyl)benzamide], the “Inhibition rate (%) at 0.5 μM” value in assay [7] (CRBN binding, HTRF, compound at 0.5 μM) was “a1 (10% < a1 ≤ 20%)”. Moreover, in assay [7] (CRBN binding, HTRF, compound at 2 μM), the “Inhibition rate (%) at 2 μM” value was “a5 (53% < a5 ≤ 60%)”.

As for `CC1(C)CCC(c2ccc(Cl)cc2)=C(CN2CCN(c3ccc(C(=O)NS(=O)(=O)c4ccc(N[C@H](CCN5CC6CCC(C5)N6Cc5ccc(C6CCC(=O)NC6=O)cc5)CSc5ccccc5)c(S(=O)(=O)C(F)(F)F)c4)cc3)CC2)C1` (stereo partly drawn) [GT-07858, 4-(4-((4′-chloro-4,4-dimethyl-3,4,5,6-tetrahydro-[1,1′-biphenyl]-2-yl)methyl)piperazin-1-yl)-N-((4-(((2R)-4-(8-(4-(2,6-dioxopiperidin-3-yl)benzyl)-3,8-diazabicyclo[3.2.1]octan-3-yl)-1-(phenylthio)butan-2-yl)amino)-3-((trifluoromethyl)sulfonyl)phenyl)sulfonyl)benzamide], the inhibition (as a rule, the relative decrease from the control value, in per cent) at 0.5 µM in assay [7] (CRBN binding, HTRF, compound at 0.5 μM, read-out: Inhibition rate (%) at 0.5 μM) is 30 to 40%. The inhibition at 2 µM in assay [7] (CRBN binding, HTRF, compound at 2 μM, read-out: Inhibition rate (%) at 2 μM) was in the range of 60 to 80%.

`C=CC(=O)N1CCC(c2ccc(C(N)=O)c(-c3ccc(Oc4ccccc4)cc3)n2)CC1` [Orelabrutinib, reference compound] displayed an IC50 in assay [7] (setting [8]) of more than 10000 nM.

Turning to `CN(C)C/C=C/C(=O)Nc1cc2c(Nc3ccc(F)c(Cl)c3)ncnc2cc1O[C@H]1CCOC1` [afatinib], the half-inhibitory concentration (IC50) in assay [7] (setting [8]) was more than 10000 nM.

Consider `C#Cc1cccc(Nc2ncnc3cc(OCCOC)c(OCCOC)cc23)c1` [erlotinib, reference compound], for which, in assay [7] (setting [8]), the IC50 was more than 10000 nM.

`C=CC(=O)N1CCC[C@@H](n2nc(-c3ccc(Oc4ccccc4)cc3)c3c(N)ncnc32)C1` [ibrutinib, Ibrutinib, reference compound] yielded an IC50 in assay [7] (setting [8]) of more than 10000 nM.

Turning to `C=CC(=O)Nc1cc(Nc2nccc(-c3cn(C)c4ccccc34)n2)c(OC)cc1N(C)CCN(C)C` [osimertinib, reference compound], the IC50 in assay [7] is more than 10000 nM.

For the origin of these results see patent US20260274829A1, “NEW E3 UBIQUITIN LIGASE LIGAND, PROTEIN DEGRADATION AGENT AND USE THEREOF” (GLUETACS THERAPEUTICS (SHANGHAI) CO., LTD., priority 2023, published 2026).
